Source: US7803559B1, “Protein aggregation regulators” (The Regents of the University of CA, priority 2003, dated 2010)

Target: T1, htt(72)CFP/YFP (Homo sapiens, UniProt P42858, INS38QQQQQQQQQQQQQQQQQQQQQQQQQQQQQQQQQQQQQQQQQQQQQQQQQQQ)
T1 construct: htt exon 1 fragment derived from plasmid qp72; expressed in transfected cells; host or cells: HEK293
Assay: FRET based assay of htt aggregation
Type: cell-based
Settings: HEK293, htt(72)CFP/YFP, 24 hours
Protocol: Aggregation of htt was monitored using the FPR FRET based HTS described herein for assaying aggregation of AR, using plasmids with htt exon 1-CFP and -YFP fusions containing 72 repeats (htt(72)CFP/YFP). HEK293 cells were transfected with htt(72)CFP/YFP as above, and cells were plated into a 96-well dish in the presence or absence of various concentrations of test compounds. After 24 hours, cells were fixed in 4% paraformaldehyde, and FRET signal was determined from the cell monolayers by reading on the FPR.

T1 sequence (P42858 with tags, fused parts or gaps, stated change not applied): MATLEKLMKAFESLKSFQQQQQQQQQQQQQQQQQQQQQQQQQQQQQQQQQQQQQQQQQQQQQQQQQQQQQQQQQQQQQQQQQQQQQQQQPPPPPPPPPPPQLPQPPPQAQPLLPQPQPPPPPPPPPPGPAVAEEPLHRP

In order of rising “Max % Inh. in Htt” value:
1. COc1cc2nc[nH]c(=O)c2cc1OC(C)=O [Compound 4, Acetic acid 7-methoxy-4-oxo-3,4-dihydro-quinazolin-6-yl ester]  15%
2. COc1cc2ncnc(Nc3ccc(F)c(Cl)c3)c2cc1OCCCN1CCOCC1 [Iressa, (3-Chloro-4-fluoro-phenyl)-[7-methoxy-6-(3-morpholin-4-yl-propoxy)-quinazolin-4-yl]-amine]  20%
3. COc1cc2ncnc(Nc3ccc(F)c(Cl)c3)c2cc1OC(C)=O [Compound 3, Acetic acid 4-(3-chloro-4-fluoro-phenylamino)-7-methoxy-quinazolin-6-yl ester]  21%
4. Oc1cc(O)cc(/C=C/c2ccc(O)c(O)c2)c1 [Piceatannol, 3,3′4,5′-Tetrahydroxy-Trans-stilbene]  28%

Test system: ARN127(65)CFP/YFP
Assay: Primary high-throughput AR FRET screen of three libraries
Type: cell-based, human
Settings: compounds at 4 μg/ml, HEK293, ARN127(65)CFP/YFP + GRΔ, 100 nM dex, ~48 hours
Protocol: (§1) Selected candidate compounds and/or libraries of compounds were screened as follows. Daughter plates were created in duplicate from the 384-well microtiter plates that contained the compounds at a concentration of 80 μg/ml. Compounds were aliquoted in 96-well plates (Costar™ 3603) at a concentration at which most of the compounds are active, but are not toxic to the cells (e.g., of 4 μg/ml). To screen a library, HEK293 cells stably expressing RFP were plated in 10 cm plates to obtain ˜80% confluency on the day of transfection. Each plate was transfected with 2 μg of ARN127(65)CFP/YFP each, and 0.7 μg p6RGRΔ using 50 μL Plus Reagent™ and 76 μL Lipofectamine™ according to manufacturer's protocol (Invitrogen). After 3 hours, complete medium was added and the plates were incubated further for 3 hours. […] The cells were then cultured for ˜48 hours to allow aggregate formation. After fixing the cells FRET signal was measured using a SAFIRE Fluorescence Plate Reader (Tecan, Inc.) according to methods described above. Several internal controls were used to standardize each experiment. Mock transfected cells were used to control for background autofluorescence and light scattering by mammalian cells. To control for CFP bleedthrough and crossover excitation of YFP, additional wells contained cells expressing ARN127(25)CFP or ARN127(25)YFP alone. RFP was measured to control for non-specific effects on steady-state protein levels. ARN127(25)CFP/YFP expression served as a reference point for background FRET levels without aggregation (a theoretical maximum effect on aggregation inhibition). FRET measurements for each experiment were thus scaled between 100% (cells with no drug treatment) and 0% (FRET levels from unexpanded protein). Last, each plate also contained wells treated with Y-27632 (50 μM) as a positive control.
as §1, with “Daughter” for “Selected candidate compounds and/or libraries of compounds were screened as follows. Daughter”, “a single concentration, e.g.,” for “a concentration of”, “concentration of 4 μg/ml,” for “concentration”, “the cells.” for “the cells (e.g., of 4 μg/ml).”, “screen the” for “screen a”

In order of rising “% Inhibition” value:
1. Cl.NC[C@@H]1O[C@H](C23CC4CC(CC(C4)C2)C3)Cc2c1ccc(O)c2O [A-77636 hydrochloride]  64%
2. COC1=C2CC[C@@H]3[C@H](CC[C@]4(C)C(=O)CC[C@@H]34)[C@@]2(C)CCC1=O [4-Androsten-4-ol-3,17-dione 4-methyl ether]  65.3%
3. NC(N)=NCCC[C@H](N)C(=O)C[C@@H](Cc1ccc(O)cc1)C(=O)O.NC(N)=NCCC[C@H](N)C(=O)C[C@@H](Cc1ccc(O)cc1)C(=O)O.O=S(=O)(O)O [Arphamenine B Hemisulfate Salt: Hydrate]  69.7%
4. Cc1nnc(SCC2=C(C(=O)O)N3C(=O)[C@@H](NC(=O)Cn4cnnn4)[C@H]3SC2)s1 [Cefazolin sodium]  70%
5. CO[C@@H]1O[C@H](CO)[C@H](O)[C@H](O[C@@H]2O[C@H](CO)[C@@H](O)[C@H](O)[C@H]2NC(C)=O)[C@H]1O [Methyl 3-O-(2-Acetamido-2-Deoxy-B-D-Glucopyranosyl)-B-D-Galactopyranoside]  70%
6. Nc1nc2c(nc(Br)n2[C@@H]2O[C@@H]3COP(=O)([O-])O[C@H]3[C@H]2O)c(=O)[nH]1.[Na+] [8-Bromoguanosine 3′,5′-cyclic monophosphate sodium salt]  71%
7. O=c1ncnc2n([C@H]3O[C@@H](CO)[C@H](O)[C@@H]3O)[nH]cc1-2 (stereo in doubt) [Allopurinol riboside]  71.8%
8. L-Canavanine Free Base  73%
9. Cn1cnc([N+](=O)[O-])c1Sc1ncnc2nc[nH]c12 [Azathioprine]  74.5%
10. NCCCCCCNS(=O)(=O)c1cccc2ccccc12 [N-6-Aminohexyl-1-Naphthalenesulfonamide]  79.7%
11. Nc1ccc(S(=O)(=O)Nc2ncccn2)cc1 [Sulfadiaine Free Acid]  80%
12. Cc1ccc(S(=O)(=O)N[C@@H](CCC(N)=O)C(=O)OC(C)C)cc1 [N-(P-Tosyl)-L-Glutamine Isopropyl Ester]  80.6%
13. Cytosine beta-D-arabinofuranoside Hydrochloride  81%
14. NCc1ccc(Cl)cc1Cl [2,4-Dichlorobenzylamine]  85%

Test system: ARN127(65)CFP/YFP
Assay: Secondary screen using the AR FRET assay
Type: cell-based, human
Settings: secondary screen, AR FRET assay, Table 3
Protocol: as §1, with “Compounds were aliquoted in 96-well plates (Costar™ 3603) at a concentration at which most of the compounds are active, but are not toxic to the cells (e.g., of 4 μg/ml).” left out, “protein).” for “protein). Last, each plate also contained wells treated with Y-27632 (50 μM) as a positive control.”
Selected candidate compounds from the primary screen of all three libraries were assayed again in a secondary screen using the AR FRET assay.
Finally, the role of F-actin in preventing polyglutamine aggregation was investigated by treating cells with two agents that prevent actin depolymerization: phalloidin and jasplakinolide.

In order of rising “Max % Inhibition” value:
1. Oc1cc(O)cc(/C=C/c2ccc(O)c(O)c2)c1 [Piceatannol, 3,3′4,5′-Tetrahydroxy-Trans-stilbene]  23%
2. COc1cc2nc[nH]c(=O)c2cc1OC(C)=O [Compound 4, Acetic acid 7-methoxy-4-oxo-3,4-dihydro-quinazolin-6-yl ester]  28%
3. COc1cc2ncnc(Nc3ccc(F)c(Cl)c3)c2cc1OC(C)=O [Compound 3, Acetic acid 4-(3-chloro-4-fluoro-phenylamino)-7-methoxy-quinazolin-6-yl ester]  30%
